Laboratory results taken from PubChem BioAssay AID330 (DTP/NCI, 2004).
Several values for one entry are separate records, joined by “and”; a condition that tells them apart may be missing. Identical values can stand only once. Toxic doses and inconclusive results are not listed. How the source made its calls: active means survival T/C of 150% or more; inactive means T/C below 125% in these data.

System: P388 leukemia ip, CD2F1 mice, survival T/C
Test: NCI In Vivo Anticancer Drug Screen. Data for tumor model P388 Leukemia (intraperitoneal) in CD2F1 (CDF1) mice
Settings: endpoint: median survival time, higher = longer survival
In short: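 Mice carrying the transplanted tumor received test compound or vehicle. Survival was recorded in each group, and the value is the treated-group measurement divided by that of the vehicle-treated control group.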

[1] = dose: 60.0 mg/kg/injection, schedule: Q01DX005 (ip), vehicle: saline with Tween-80
[2] = dose: 120.0 mg/kg/injection, schedule: Q01DX005 (ip), vehicle: saline with Tween-80
[3] = dose: 50.0 mg/kg/injection, schedule: Q01DX009 (ip), vehicle: saline with Tween-80
[4] = dose: 100.0 mg/kg/injection, schedule: Q01DX009 (ip), vehicle: saline with Tween-80
[5] = dose: 200.0 mg/kg/injection, schedule: Q01DX009 (ip), vehicle: saline with Tween-80
[6] = dose: 50.0 mg/kg/injection, schedule: Q01DX005 (ip), vehicle: saline with Tween-80
[7] = dose: 100.0 mg/kg/injection, schedule: Q01DX005 (ip), vehicle: saline with Tween-80
[8] = dose: 200.0 mg/kg/injection, schedule: Q01DX005 (ip), vehicle: saline with Tween-80
[9] = dose: 50.0 mg/kg/injection, schedule: Q01DX009 (ip), vehicle: Klucel (hydroxypropylcellulose) (HPC)
[10] = dose: 100.0 mg/kg/injection, schedule: Q01DX009 (ip), vehicle: Klucel (hydroxypropylcellulose) (HPC)
[11] = dose: 200.0 mg/kg/injection, schedule: Q01DX009 (ip), vehicle: Klucel (hydroxypropylcellulose) (HPC)
[12] = dose: 240.0 mg/kg/injection, schedule: Q01DX005 (ip), vehicle: saline with Tween-80
[13] = dose: 60.0 mg/kg/injection, schedule: Q01DX005 (ip), vehicle: Klucel (hydroxypropylcellulose) (HPC)
[14] = dose: 120.0 mg/kg/injection, schedule: Q01DX005 (ip), vehicle: Klucel (hydroxypropylcellulose) (HPC)
[15] = dose: 100.0 mg/kg/injection, schedule: Q01DX001 (ip), vehicle: saline with Tween-80
[16] = dose: 200.0 mg/kg/injection, schedule: Q01DX001 (ip), vehicle: saline with Tween-80
[17] = dose: 400.0 mg/kg/injection, schedule: Q01DX001 (ip), vehicle: saline with Tween-80
[18] = dose: 100.0 mg/kg/injection, schedule: Q04DX003 (ip), vehicle: saline with Tween-80
[19] = dose: 200.0 mg/kg/injection, schedule: Q04DX003 (ip), vehicle: saline with Tween-80
[20] = dose: 400.0 mg/kg/injection, schedule: Q04DX003 (ip), vehicle: saline with Tween-80
[21] = dose: 50.0 mg/kg/injection, schedule: Q01DX005 (ip), vehicle: Klucel (hydroxypropylcellulose) (HPC)
[22] = dose: 100.0 mg/kg/injection, schedule: Q01DX005 (ip), vehicle: Klucel (hydroxypropylcellulose) (HPC)
[23] = dose: 200.0 mg/kg/injection, schedule: Q01DX005 (ip), vehicle: Klucel (hydroxypropylcellulose) (HPC)

Measured: T/C

CCC(c1ccc(O)cc1)C(CC)c1ccc(O)c(CN(C)C)c1 (stereo unspecified)
inactive: dose: 15.0 mg/kg/injection, schedule: Q01DX005 (ip), vehicle: saline with Tween-80 100 % of control | dose: 30.0 mg/kg/injection, schedule: Q01DX005 (ip), vehicle: saline with Tween-80 100 % of control | [1] 96 % of control | [2] 94 % of control

CC(=O)Nc1ccc(CN2CC(C)N(N)C(C)C2)cc1 (stereo unspecified)
inactive: dose: 25.0 mg/kg/injection, schedule: Q04DX003 (ip), vehicle: Klucel (hydroxypropylcellulose) (HPC) 101 % of control | dose: 50.0 mg/kg/injection, schedule: Q04DX003 (ip), vehicle: Klucel (hydroxypropylcellulose) (HPC) 98 % of control | dose: 100.0 mg/kg/injection, schedule: Q04DX003 (ip), vehicle: Klucel (hydroxypropylcellulose) (HPC) 95 % of control | dose: 200.0 mg/kg/injection, schedule: Q04DX003 (ip), vehicle: Klucel (hydroxypropylcellulose) (HPC) 100 % of control | dose: 400.0 mg/kg/injection, schedule: Q04DX003 (ip), vehicle: Klucel (hydroxypropylcellulose) (HPC) 104 % of control

O=C1C2CC3CC4C(=O)C5CC1C1C2C3C4C51 (stereo unspecified)
inactive: [3] 94 % of control | [4] 102 % of control | [5] 97 % of control

Oc1ccc2ccccc2c1/C=N/N=c1\[nH][nH]/c(=N\N=C\c2c(O)ccc3ccccc23)c2ccccc12
inactive: [6] 98 % of control | [7] 97 % of control | [8] 99 % of control

CCOc1ccc(/C=N/NC(=O)c2c(-c3ccccc3)noc2C)cc1
inactive: [6] 86 % of control | [7] 91 % of control | [8] 97 % of control

NC(=O)c1ccnn1C1OC(CO)C(O)C1O (stereo unspecified)
inactive: dose: 32.0 mg/kg/injection, schedule: Q01DX002 (ip), vehicle: saline 107 % of control and 116 % of control | dose: 64.0 mg/kg/injection, schedule: Q01DX002 (ip), vehicle: saline 104 % of control and 112 % of control | dose: 128.0 mg/kg/injection, schedule: Q01DX002 (ip), vehicle: saline 107 % of control

CN(C)Nc1ncnc2c1ncn2C
inactive: [6] 103 % of control | [7] 100 % of control | [8] 97 % of control

O=c1c2cc3c(cc2c2cccc4ccn1c42)OCO3
inactive: dose: 4.5 mg/kg/injection, schedule: Q01DX009 (ip), vehicle: Klucel (hydroxypropylcellulose) (HPC) 105 % of control | dose: 9.0 mg/kg/injection, schedule: Q01DX009 (ip), vehicle: Klucel (hydroxypropylcellulose) (HPC) 115 % of control | dose: 18.0 mg/kg/injection, schedule: Q01DX009 (ip), vehicle: Klucel (hydroxypropylcellulose) (HPC) 107 % of control | dose: 36.0 mg/kg/injection, schedule: Q01DX009 (ip), vehicle: Klucel (hydroxypropylcellulose) (HPC) 104 % of control

Cc1cc(O)c(N=Nc2cc(C)c(C)cc2[N+](=O)[O-])cc1C
inactive: [9] 109 % of control | [10] 109 % of control | [11] 101 % of control

Cc1cc2c(c(=O)o1)C(C)CC(c1c(O)cc(C)oc1=O)O2 (stereo unspecified)
inactive: [1] 114 % of control | [2] 108 % of control | [12] 103 % of control

O=c1c2ccccc2oc2nc3ccccc3nc12
inactive: [13] 101 % of control | [14] 103 % of control

Cn1c(=O)ccc2c3ncccc3c(C(F)(F)F)cc21
inactive: [15] 99 % of control | [16] 100 % of control | [17] 101 % of control

Cc1c2c[n+]([O-])ccc2c(C)c2c1c1ccccc1n2C
inactive: dose: 12.5 mg/kg/injection, schedule: Q04DX002 (ip), vehicle: saline with Tween-80 101 % of control | dose: 25.0 mg/kg/injection, schedule: Q04DX002 (ip), vehicle: saline with Tween-80 101 % of control | dose: 50.0 mg/kg/injection, schedule: Q04DX002 (ip), vehicle: saline with Tween-80 103 % of control | dose: 100.0 mg/kg/injection, schedule: Q04DX002 (ip), vehicle: saline with Tween-80 107 % of control | dose: 200.0 mg/kg/injection, schedule: Q04DX002 (ip), vehicle: saline with Tween-80 113 % of control

COC1(C)O[C@@]2(C)c3ccccc3C(=O)[C@@]2(c2ccccc2)O1 (stereo partly specified)
inactive: [1] 104 % of control | [2] 97 % of control | [12] 97 % of control

Cc1cc(NC(=O)CSCC(=O)O)no1
inactive: [13] 98 % of control | [14] 101 % of control | dose: 240.0 mg/kg/injection, schedule: Q01DX005 (ip), vehicle: Klucel (hydroxypropylcellulose) (HPC) 94 % of control

COc1cccc(-c2nnc(-n3cc(-c4ccccc4)cc3N)s2)c1
inactive: dose: 50.0 mg/kg/injection, schedule: Q01DX001 (ip), vehicle: Klucel (hydroxypropylcellulose) (HPC) 104 % of control | dose: 100.0 mg/kg/injection, schedule: Q01DX001 (ip), vehicle: Klucel (hydroxypropylcellulose) (HPC) 95 % of control | dose: 200.0 mg/kg/injection, schedule: Q01DX001 (ip), vehicle: Klucel (hydroxypropylcellulose) (HPC) 89 % of control

CC(=O)OCC1OC(n2cc(F)c(=O)[nH]c2=O)CC1OC(C)=O (stereo unspecified)
inactive: [3] 100 % of control | [4] 118 % of control | [5] 86 % of control

O=[N+]([O-])c1c(Nc2ccccc2)ncnc1Nc1ccccc1
inactive: [18] 105 % of control | [19] 106 % of control | [20] 100 % of control

CCC[CH2][Sn]([CH2]CCC)([n]1ccnc1)[n]1ccnc1
inactive: dose: 3.12 mg/kg/injection, schedule: Q01DX005 (ip), vehicle: Klucel (hydroxypropylcellulose) (HPC) 116 % of control | dose: 6.25 mg/kg/injection, schedule: Q01DX005 (ip), vehicle: Klucel (hydroxypropylcellulose) (HPC) 110 % of control

Cc1nc2c(I)cccc2c(=O)n1CC(=O)NNC(N)=S
inactive: [18] 101 % of control | [19] 97 % of control | [20] 100 % of control

C[C@]12CC[C@@H]3c4ccc(O)c(N)c4CC[C@H]3[C@@H]1CC[C@@H]2O
inactive: dose: 12.5 mg/kg/injection, schedule: Q01DX005 (ip), vehicle: saline with Tween-80 93 % of control | dose: 25.0 mg/kg/injection, schedule: Q01DX005 (ip), vehicle: saline with Tween-80 88 % of control | [6] 94 % of control | [7] 90 % of control | [8] 90 % of control

Nc1nnc2cc(Cl)ccc2n1
inactive: dose: 25.0 mg/kg/injection, schedule: Q01DX005 (ip), vehicle: Klucel (hydroxypropylcellulose) (HPC) 98 % of control | [21] 96 % of control | [22] 98 % of control | [23] 98 % of control

CC(C)OC1NC(=O)Oc2ccccc21 (stereo unspecified)
inactive: [6] 104 % of control | [7] 110 % of control | [8] 113 % of control

O=C(O)c1cc(-c2ccncc2)nc2ccccc12
inactive: [21] 99 % of control | [22] 96 % of control | [23] 97 % of control

O=C(C1CCCCC1)C1CCCCC1CC1CCCCC1 (stereo unspecified)
inactive: [6] 102 % of control | [7] 107 % of control | [8] 107 % of control

COC(c1nc(N)no1)c1c(Cl)cccc1Cl (stereo unspecified)
inactive: [21] 97 % of control | [22] 91 % of control | [23] 92 % of control

Cc1cc(C)c(CC(=O)O)c(C)c1
inactive: dose: 25.0 mg/kg/injection, schedule: Q01DX009 (ip), vehicle: Klucel (hydroxypropylcellulose) (HPC) 111 % of control | [9] 106 % of control | [10] 105 % of control | [11] 107 % of control

CC(=O)NC1C(Nc2ccc(S(=O)(=O)NC(C)=O)cc2)OC(CO)C(O)C1O (stereo unspecified)
inactive: dose: 50.0 mg/kg/injection, schedule: Q01DX005 (ip), vehicle: saline 100 % of control | dose: 100.0 mg/kg/injection, schedule: Q01DX005 (ip), vehicle: saline 97 % of control | dose: 200.0 mg/kg/injection, schedule: Q01DX005 (ip), vehicle: saline 97 % of control

Nc1cc(N)cc(C(=O)c2ccccc2)c1
inactive: [4] 95 % of control | [5] 95 % of control | dose: 400.0 mg/kg/injection, schedule: Q01DX009 (ip), vehicle: saline with Tween-80 90 % of control

CN1C(=S)C2(C1c1ccccc1)C(C)(C)CCCC2(C)C (stereo unspecified)
inactive: [15] 92 % of control | [16] 92 % of control | [17] 87 % of control

CSc1nc2ccc(N=Cc3ccc([N+](=O)[O-])cc3)cc2s1
inactive: [9] 98 % of control | [10] 86 % of control | [11] 87 % of control and 92 % of control
